What was measured:
JAK2 = target: T1, JAK2 (Homo sapiens, UniProt O60674); assay: Competition binding assay, JAK2
T1 construct: made in house
Excerpt: (§1) Competition Binding Assay to Determine Binding Constants (Kd) of the Compounds Against JAK Kinases
(§2) Competition binding assays used herein were developed, validated and performed as described in Fabian et al., Nature Biotechnology 2005, 23,329-336. Kinases were produced as fusions to T7 phage (See, Fabian et al. or WO04/015142) or alternatively, the kinases were expressed in HEK-293 cells and subsequently tagged with DNA for PCR detection (See, WO08/005310). For the binding assays, streptavidin-coated magnetic beads were treated with biotinylated affinity ligands for 30 min at rt to generate affinity resins. The liganded beads were blocked with excess biotin and washed with blocking buffer (SeaBlock (Pierce), 1% BSA, 0.05% Tween 20, 1 mM DTT) to remove unbound ligand and to reduce non-specific binding. Binding reactions were assembled by combining kinase, liganded affinity beads, and test compounds in 1× binding buffer (20% SeaBlock, 0.17×PBS, 0.05% Tween 20, 6 mM DTT). Test compounds were prepared as 100× stocks in DMSO and rapidly diluted into the aqueous environment. DMSO was added to control assays lacking a test compound. Primary screen interactions were performed in polypropylene 384-well plates in a final volume of 34 μL, while Kd determinations were performed in polystyrene 96-well plates in a final volume of 135 μL. The assay plates were incubated at room temperature with shaking for 1 hour, long enough for binding reactions to reach equilibrium, and the affinity beads were washed extensively with wash buffer (1× PBS, 0.05% Tween 20) to remove unbound protein. The beads were then resuspended in elution buffer (1× PBS, 0.05% Tween 20, 2 μM non-biotinylated affinity ligand) and incubated at room temperature with shaking for 30 min. The kinase concentration in the eluates was measured by quantitative PCR. Each kinase was tested individually against each compound. Kds were determined using eleven serial threefold dilutions. A selectivity score, which is a quantitative measure of selectivity of a compound against a panel of enzymes, may be calculated for a compound by dividing the number of enzymes for which a compound meets a set criteria, (for example, a binding constant of 100 nM or less), by the total number of enzymes tested.

JAK3 = target: T2, JAK3 (Homo sapiens, UniProt P52333); assay: Competition binding assay, JAK3
T2 construct: made in house
T2 sequence (P52333 1-1124): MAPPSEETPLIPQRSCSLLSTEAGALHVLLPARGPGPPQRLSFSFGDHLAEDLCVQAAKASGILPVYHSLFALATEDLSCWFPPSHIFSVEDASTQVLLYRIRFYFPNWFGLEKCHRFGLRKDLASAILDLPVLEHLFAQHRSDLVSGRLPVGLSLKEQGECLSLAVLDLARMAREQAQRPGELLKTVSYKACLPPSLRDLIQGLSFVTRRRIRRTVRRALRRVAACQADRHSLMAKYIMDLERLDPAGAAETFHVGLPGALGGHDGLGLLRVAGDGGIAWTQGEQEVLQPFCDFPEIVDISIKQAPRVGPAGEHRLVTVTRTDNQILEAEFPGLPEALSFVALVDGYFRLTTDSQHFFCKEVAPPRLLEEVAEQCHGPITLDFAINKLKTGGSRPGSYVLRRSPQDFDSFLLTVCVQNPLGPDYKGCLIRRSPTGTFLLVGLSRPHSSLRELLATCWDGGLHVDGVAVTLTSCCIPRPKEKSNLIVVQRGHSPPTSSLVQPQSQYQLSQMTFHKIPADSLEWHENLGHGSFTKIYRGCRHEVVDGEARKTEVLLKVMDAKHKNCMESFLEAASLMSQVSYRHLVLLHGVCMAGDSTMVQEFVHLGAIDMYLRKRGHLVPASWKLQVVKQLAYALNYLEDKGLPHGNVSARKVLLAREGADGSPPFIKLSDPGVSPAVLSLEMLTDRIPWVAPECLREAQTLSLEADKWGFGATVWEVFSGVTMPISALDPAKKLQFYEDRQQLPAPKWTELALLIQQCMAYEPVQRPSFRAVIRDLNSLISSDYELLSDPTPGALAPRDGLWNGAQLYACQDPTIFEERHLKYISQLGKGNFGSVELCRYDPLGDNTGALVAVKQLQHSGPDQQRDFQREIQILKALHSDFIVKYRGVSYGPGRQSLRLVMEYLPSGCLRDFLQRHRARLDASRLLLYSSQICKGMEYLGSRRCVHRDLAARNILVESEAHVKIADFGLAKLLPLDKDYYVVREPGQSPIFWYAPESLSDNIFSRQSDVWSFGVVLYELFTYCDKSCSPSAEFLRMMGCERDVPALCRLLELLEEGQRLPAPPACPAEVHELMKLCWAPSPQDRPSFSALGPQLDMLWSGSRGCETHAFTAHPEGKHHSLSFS
Excerpt: as §1, §2

[1] = system: GM-CSFR/JAK2/STAT5 pathway in CSTF-1 cells; assay: CSTF-1 cell-based reporter assay (beta-lactamase, GM-CSF stimulated); parameters: species or system human; details: Homo sapiens; GM-CSF at 2 ng/mL, 4 hours; read-out: Cell Assay: CS TF-1 reporter assay IC50
Method: CSTF-1 Cell-Based Reporter Assay
CSTF-1 cells are derived from the human erythroleukemia cell line that is growth dependent on GM-CSF and has an intact GM-CSFR/JAK2/STAT5 pathway. The cell line contains stably integrated beta-lactamase reporter gene under the control of the […] (irf 1) response element recognized by the activated transcription factor STATS. csTF-1 cells (Invitrogen K1219) were washed with assay media (97% OPTIMEM/ 0.5% dialyzed FBS/0.1 mM NEAA/1 mM Na pyr/P/S) and seeded in the same media at 5×10^5 cell/mL in T150 flask. After 16 hour incubation, cells were seeded at 2×10^5 cell/well in 50 μl volume, into Costar, clear bottom, 96-well assay plates. Serial dilutions of compounds were added to the plates with final DMSO concentration at 0.5% and GM-CSF at 2 ng/mL and the plates were then incubated at […] and 5% CO2 for 4 hours. The plates were brought to room temperature before adding Substrate Mixture according to manufacturer's protocol (Invitrogen, Catalog #K1085). The assay plates containing the substrate mixture were incubated in the dark at room temperature for 2 hours. Blue and green fluorescence was measured with excitation at 409 nm and emission at 460 nm (for blue) and excitation at 409 nm and emission at 530 nm (for green) using Spectra Max Gemini EM.

[2] = system: distinct kinases tested excluding mutant variants, typically 359 or 386 kinases; assay: Kinase selectivity score from competition binding panel; details: compound at 10 μM; fraction of kinases with inhibition of 90% or greater
Method: as §2

TYK2 = target: T3, TYK2 (Homo sapiens, UniProt P29597); assay: Competition binding assay, TYK2
T3 construct: made in house
T3 sequence (P29597 whole entry): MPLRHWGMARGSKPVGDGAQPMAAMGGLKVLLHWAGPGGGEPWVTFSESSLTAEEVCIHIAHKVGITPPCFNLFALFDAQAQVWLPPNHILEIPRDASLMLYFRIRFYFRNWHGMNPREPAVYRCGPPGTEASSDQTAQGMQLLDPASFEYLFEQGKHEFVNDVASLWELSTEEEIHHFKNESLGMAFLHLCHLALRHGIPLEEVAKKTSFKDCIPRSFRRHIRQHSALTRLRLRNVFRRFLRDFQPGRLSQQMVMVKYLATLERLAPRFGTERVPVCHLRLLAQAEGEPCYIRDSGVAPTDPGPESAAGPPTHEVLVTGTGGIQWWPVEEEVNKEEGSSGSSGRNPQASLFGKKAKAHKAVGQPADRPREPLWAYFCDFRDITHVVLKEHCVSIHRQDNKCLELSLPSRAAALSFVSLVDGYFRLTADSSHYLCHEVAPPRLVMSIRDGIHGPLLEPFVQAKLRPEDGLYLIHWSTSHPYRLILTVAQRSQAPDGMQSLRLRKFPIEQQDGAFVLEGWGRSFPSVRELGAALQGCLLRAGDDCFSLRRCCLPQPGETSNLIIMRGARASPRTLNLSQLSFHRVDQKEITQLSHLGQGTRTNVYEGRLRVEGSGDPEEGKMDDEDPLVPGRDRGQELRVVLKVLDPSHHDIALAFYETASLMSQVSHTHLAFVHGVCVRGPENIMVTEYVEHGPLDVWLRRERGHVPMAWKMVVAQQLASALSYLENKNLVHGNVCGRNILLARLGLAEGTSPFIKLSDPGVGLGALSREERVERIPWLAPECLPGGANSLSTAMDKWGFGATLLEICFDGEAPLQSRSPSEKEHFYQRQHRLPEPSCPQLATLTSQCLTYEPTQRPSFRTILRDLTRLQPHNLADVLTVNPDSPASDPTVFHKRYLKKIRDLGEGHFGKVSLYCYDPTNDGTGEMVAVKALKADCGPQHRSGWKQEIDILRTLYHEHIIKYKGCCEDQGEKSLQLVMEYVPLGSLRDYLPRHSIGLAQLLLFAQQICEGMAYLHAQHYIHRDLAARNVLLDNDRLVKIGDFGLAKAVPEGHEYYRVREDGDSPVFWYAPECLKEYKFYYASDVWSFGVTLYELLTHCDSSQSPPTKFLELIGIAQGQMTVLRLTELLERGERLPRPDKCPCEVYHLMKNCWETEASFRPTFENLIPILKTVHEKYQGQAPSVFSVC
Excerpt: as §1, §2

T1 sequence (O60674 whole entry): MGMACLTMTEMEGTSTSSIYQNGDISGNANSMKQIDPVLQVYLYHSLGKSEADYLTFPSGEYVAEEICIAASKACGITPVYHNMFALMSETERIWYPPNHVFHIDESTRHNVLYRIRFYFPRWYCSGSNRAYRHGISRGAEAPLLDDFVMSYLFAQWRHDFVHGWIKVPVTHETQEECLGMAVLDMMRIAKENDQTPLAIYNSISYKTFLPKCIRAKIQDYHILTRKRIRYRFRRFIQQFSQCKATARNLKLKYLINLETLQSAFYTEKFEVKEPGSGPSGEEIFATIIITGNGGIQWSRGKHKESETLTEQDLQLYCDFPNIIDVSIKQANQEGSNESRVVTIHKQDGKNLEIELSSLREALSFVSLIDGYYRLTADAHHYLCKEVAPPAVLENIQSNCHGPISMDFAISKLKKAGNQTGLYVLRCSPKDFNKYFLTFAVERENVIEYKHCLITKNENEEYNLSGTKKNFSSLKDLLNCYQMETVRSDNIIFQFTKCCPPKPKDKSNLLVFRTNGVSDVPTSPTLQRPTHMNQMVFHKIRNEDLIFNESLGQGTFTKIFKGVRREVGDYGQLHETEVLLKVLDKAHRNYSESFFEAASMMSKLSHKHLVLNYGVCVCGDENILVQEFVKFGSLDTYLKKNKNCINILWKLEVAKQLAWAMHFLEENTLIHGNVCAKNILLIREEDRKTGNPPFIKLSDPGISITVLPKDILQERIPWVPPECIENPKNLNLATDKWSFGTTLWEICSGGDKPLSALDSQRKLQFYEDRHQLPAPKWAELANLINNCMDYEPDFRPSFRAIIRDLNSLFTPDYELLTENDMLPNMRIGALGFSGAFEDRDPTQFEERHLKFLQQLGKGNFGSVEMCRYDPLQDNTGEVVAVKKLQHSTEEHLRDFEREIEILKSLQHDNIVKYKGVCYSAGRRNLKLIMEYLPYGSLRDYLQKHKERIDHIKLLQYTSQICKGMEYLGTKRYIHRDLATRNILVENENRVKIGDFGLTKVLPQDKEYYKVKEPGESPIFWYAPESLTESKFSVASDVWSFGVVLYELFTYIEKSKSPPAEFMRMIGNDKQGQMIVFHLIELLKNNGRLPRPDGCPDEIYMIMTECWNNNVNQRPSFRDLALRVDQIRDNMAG

Row | Structure (SMILES) | Kd (JAK2) | Kd (JAK3) | IC50 [1] | S-Score: S(10) at 10 μM [2] | Kd (TYK2)
1 | Cc1cc(Nc2nc(C(O)c3ccc(F)cc3)nc3cscc23)n[nH]1 (racemic) [Example 32, (R,S)-(4-fluorophenyl)(4-(5-methyl-1H-pyrazol-3-ylamino)thieno[3,4-d]pyrimidin-2-yl)methanol] | ≤ 0.001 µM | ≤ 0.01 µM | ≤ 0.1 µM | B (0.3 < B ≦ 0.4) | ≤ 0.01 µM
2 | CC(C)(C)c1cc2nc(C(O)c3ccc(F)cc3)nc(Nc3cc[nH]n3)c2s1 (racemic) [Example 29, (R,S)-(4-(1H-pyrazol-3-ylamino)-6-tert-butylthieno[3,2-d]pyrimidin-2-yl)(4-fluorophenyl)methanol] | 0.001 to 0.01 µM | > 0.1 µM | 0.1 to 0.5 µM | A (A ≦ 0.3) | > 0.1 µM
3 | COC(c1ccc(F)cc1)c1nc(Nc2cc(C)[nH]n2)c2sccc2n1 (stereo not drawn) [Example 19, 2-((4-fluorophenyl)(methoxy)methyl)-N-(5-methyl-1H-pyrazol-3-yl)thieno[3,2-d]pyrimidin-4-amine] | 0.001 to 0.01 µM | 0.01 to 0.1 µM | 0.1 to 0.5 µM | A (A ≦ 0.3) | 0.01 to 0.1 µM
4 | Cc1cc(Nc2nc(C(O)c3ccc(F)cc3)nc3scc(C)c23)n[nH]1 (racemic) [Example 11, (R,S)-(4-Fluorophenyl)(5-methyl-4-(5-methyl-1H-pyrazol-3-ylamino)thieno[2,3-d]pyrimidin-2-yl)methanol] | > 0.01 µM | > 0.1 µM | > 0.5 µM | A (A ≦ 0.3) | > 0.1 µM
5 | Cc1cc(Nc2nc(C(=O)c3ccc(F)cc3)nc3cc(C)sc23)n[nH]1 [Example 20, (4-fluorophenyl)(6-methyl-4-(5-methyl-1H-pyrazol-3-ylamino)thieno[3,2-d]pyrimidin-2-yl)methanone] | ≤ 0.001 µM | ≤ 0.01 µM | ≤ 0.1 µM | B (0.3 < B ≦ 0.4) | 0.01 to 0.1 µM
6 | CC(C)(C)c1cc2nc(C(F)(F)c3ccc(F)cc3)nc(Nc3cc[nH]n3)c2s1 [Example 31, 6-tert-butyl-2-(difluoro(4-fluorophenyl)methyl)-N-(1H-pyrazol-3-yl)thieno[3,2-d]pyrimidin-4-amine] | 0.001 to 0.01 µM | > 0.1 µM | 0.1 to 0.5 µM | A (A ≦ 0.3) | > 0.1 µM
7 | Cc1cc2c(Nc3cc[nH]n3)nc(C(F)(F)c3ccc(F)cc3)nc2s1 [Example 15, 2-(difluoro(4-fluorophenyl)methyl)-6-methyl-N-(1H-pyrazol-3-yl)thieno[2,3-d]pyrimidin-4-amine] | 0.001 to 0.01 µM | 0.01 to 0.1 µM | 0.1 to 0.5 µM | A (A ≦ 0.3) | > 0.1 µM
8 | Cc1cc(Nc2nc(C(O)c3ccc(F)cc3)nc3ccsc23)n[nH]1 (racemic) [Example 6, (R,S)-4-Fluorophenyl)(4-(5-methyl-1H-pyrazol-3-ylamino)thieno[3,2-d]pyrimidin-2-yl)methanol] | ≤ 0.001 µM | ≤ 0.01 µM | ≤ 0.1 µM | A (A ≦ 0.3) | ≤ 0.01 µM
9 | Cc1cc(Nc2nc(C(C)(O)c3ccc(F)cc3)nc3ccsc23)n[nH]1 (racemic) [Example 18, (R,S)-1-(4-fluorophenyl)-1-(4-(5-methyl-1H-pyrazol-3-ylamino)thieno[3,2-d]pyrimidin-2-yl)ethanol] | ≤ 0.001 µM | ≤ 0.01 µM | ≤ 0.1 µM |  | ≤ 0.01 µM
10 | Cc1csc2nc(C(O)c3ccc(F)cc3)nc(Nc3cc[nH]n3)c12 (racemic) [Example 13, (R,S)-(4-(1H-pyrazol-3-ylamino)-5-methylthieno[2,3-d]pyrimidin-2-yl)(4-fluorophenyl)methanol] | > 0.01 µM | > 0.1 µM | > 0.5 µM | A (A ≦ 0.3) | > 0.1 µM
11 | Cc1cc(Nc2nc(C(=O)c3ccc(F)cc3)nc3scc(C)c23)n[nH]1 [Example 10, (4-fluorophenyl)(5-methyl-4-(5-methyl-1H-pyrazol-3-ylamino)thieno[2,3-d]pyrimidin-2-yl)methanone] | > 0.01 µM | > 0.1 µM | > 0.5 µM | A (A ≦ 0.3) | > 0.1 µM
12 | Cc1cc(Nc2nc(C(O)c3ccc(F)cc3)nc3sc(C)cc23)n[nH]1 (racemic) [Example 16, (R,S)-(4-fluorophenyl)(6-methyl-4-(5-methyl-1H-pyrazol-3-ylamino)thieno[2,3-d]pyrimidin-2-yl)methanol] | ≤ 0.001 µM | 0.01 to 0.1 µM | ≤ 0.1 µM | C (0.4 < C ≦ 0.5) | ≤ 0.01 µM
13 | Cc1cc(Nc2nc(C(F)(F)c3ccc(F)cc3)nc3sc(C)cc23)n[nH]1 [Example 14, 2-(difluoro(4-fluorophenyl)methyl)-6-methyl-N-(5-methyl-1H-pyrazol-3-yl)thieno[2,3-d]pyrimidin-4-amine] | ≤ 0.001 µM | 0.01 to 0.1 µM | ≤ 0.1 µM | A (A ≦ 0.3) | ≤ 0.01 µM
14 | Cc1csc2c(Nc3cc[nH]n3)nc(C(O)c3ccc(F)cc3)nc12 (stereo not drawn) [Example 25, (4-(1H-Pyrazol-3-ylamino)-7-methylthieno[3,2-d]pyrimidin-2-yl)(4-fluorophenyl)methanol] | 0.001 to 0.01 µM | 0.01 to 0.1 µM | 0.1 to 0.5 µM |  | ≤ 0.01 µM
15 | Cc1cc2c(Nc3cn(C)cn3)nc(C(O)c3ccc(F)cc3)nc2s1 (stereo not drawn) [Example 34, (4-fluorophenyl)(6-methyl-4-(1-methyl-1H-imidazol-4-ylamino)thieno[2,3-d]pyrimidin-2-yl)methanol] | ≤ 0.001 µM | > 0.1 µM | 0.1 to 0.5 µM | A (A ≦ 0.3) | 
